Experiments:
[1] = system: oval-leafed pondweed; test: Test Example 2: herbicidal activity, application during weed generation under submerged conditions (Table 17, symbol C); type: in vivo, oval-leafed pondweed (Monochoria vaginalis); conditions: AAH 320 g/ha; application during weed generation, submerged conditions
Procedure, shortened: (§1)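 In this pot test, flooded alluvial soil (water depth 4 cm) holds all three species sown as a mixture. Once seedlings have one to two leaves, the compound's emulsion, thinned with water to the intended dose, is poured on the water; grading follows after three weeks on the earlier criteria.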

[2] = system: lambsquarters; test: Test Example 4: herbicidal effect by soil treatment (Table 19, symbol O); type: in vivo, lambsquarters (Chenopodium album); conditions: amount of applied herbicide 320 g/ha
Procedure, shortened: (§2)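 Three weeks of greenhouse growth at 25° C. to 30° C. followed a uniform surface spray of water-diluted emulsion at a predetermined herbicide amount. Seeds had been sown beforehand under about 1.5 cm of sterilized diluvial soil. Grading followed criteria set out in an earlier test.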

[3] = system: windgrass; test: Test Example 4: herbicidal effect by soil treatment (Table 19, symbol L); type: in vivo, windgrass (Apera spica-venti); conditions: amount of applied herbicide 320 g/ha
Procedure, shortened: as §2

[4] = system: redroot pigweed; test: Test Example 5: herbicidal effect by foliage application, plastic box (Table 20, symbol N); type: in vivo, redroot pigweed (Amaranthus retroflexus); conditions: foliage application, 320 g/ha, evaluated three weeks after application
Procedure, shortened: (§3)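 Plants sown in sterilized diluvial soil and grown 14 days in a greenhouse at 25° C to 30° C, then sprayed on the foliage with the compound's emulsion diluted in water to a predetermined herbicide amount. Injury to weeds and crops scored three weeks after application on a visual rating scale.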

[5] = system: blackgrass; test: Test Example 4: herbicidal effect by soil treatment (Table 19, symbol J); type: in vivo, blackgrass (Alopecurus myosuroides); conditions: amount of applied herbicide 320 g/ha
Procedure, shortened: as §2

[6] = system: late watergrass; test: Test Example 2: herbicidal activity, application during weed generation under submerged conditions (Table 17, symbol A); type: in vivo, late watergrass (Echinochloa oryzicola); conditions: AAH 320 g/ha; application during weed generation, submerged conditions
Procedure, shortened: as §1

[7] = system: green foxtail; test: Test Example 5: herbicidal effect by foliage application, plastic box (Table 20, symbol G); type: in vivo, green foxtail (Setaria viridis); conditions: foliage application, 320 g/ha, evaluated three weeks after application
Procedure, shortened: as §3

[8] = system: lambsquarters; test: Test Example 5: herbicidal effect by foliage application, plastic box (Table 20, symbol O); type: in vivo, lambsquarters (Chenopodium album); conditions: foliage application, 320 g/ha, evaluated three weeks after application
Procedure, shortened: as §3

[9] = system: Italian ryegrass; test: Test Example 5: herbicidal effect by foliage application, plastic box (Table 20, symbol K); type: in vivo, Italian ryegrass (Lolium multiflorum); conditions: foliage application, 320 g/ha, evaluated three weeks after application
Procedure, shortened: as §3

[10] = system: Japanese bulrush; test: Test Example 1: herbicidal activity, application before weed generation under submerged conditions (Table 16, symbol B); type: in vivo, Japanese bulrush (Schoenoplectus juncoides); conditions: 320 g/ha applied herbicide
Procedure, shortened: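 Emulsion formulation, water-diluted to set dose, was put onto the flooded surface (4 cm depth, alluvial soil) the same day weeds were sown and 2.5-leaf rice transplanted. After 3 weeks at 25-30 °C under glass, each species was rated 0 (≤5% kill) to 5 (≥90% kill).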

[11] = system: Italian ryegrass; test: Test Example 4: herbicidal effect by soil treatment (Table 19, symbol K); type: in vivo, Italian ryegrass (Lolium multiflorum); conditions: amount of applied herbicide 320 g/ha
Procedure, shortened: as §2

[12] = system: chickweed; test: Test Example 5: herbicidal effect by foliage application, plastic box (Table 20, symbol P); type: in vivo, common chickweed (Stellaria media); conditions: foliage application, 320 g/ha, evaluated three weeks after application
Procedure, shortened: as §3

[13] = system: velvetleaf; test: Test Example 5: herbicidal effect by foliage application, plastic box (Table 20, symbol M); type: in vivo, velvetleaf (Abutilon theophrasti); conditions: foliage application, 320 g/ha, evaluated three weeks after application
Procedure, shortened: as §3

[14] = system: southern crabgrass; test: Test Example 4: herbicidal effect by soil treatment (Table 19, symbol F); type: in vivo, southern crabgrass (Digitaria ciliaris); conditions: amount of applied herbicide 320 g/ha
Procedure, shortened: as §2

[15] = system: Chinese sprangletop; test: Test Example 3: herbicidal effect by foliage application, Wagner pot (Table 18, symbol D); type: in vivo, chinese sprangletop (Leptochloa chinensis); conditions: amount of applied herbicide 320 g/ha
Procedure, shortened: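 Plants were sown in alluvial soil held under 0.1–0.5 cm standing water and grown 14 days in a greenhouse at 25–30 °C. An emulsifiable formulation, water-diluted to the set dose, was then sprayed onto the foliage, and effects were scored three weeks later using previously defined criteria.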

[16] = system: wild oat; test: Test Example 4: herbicidal effect by soil treatment (Table 19, symbol I); type: in vivo, wild oat (Avena fatua); conditions: amount of applied herbicide 320 g/ha
Procedure, shortened: as §2

Structure (SMILES) | herbicidal effect rating, C: oval-leafed pondweed [1] | herbicidal effect on N: redroot pigweed (criteria 0-5) [4] | herbicidal effect rating, A: late watergrass [6] | herbicidal effect on G: green foxtail (criteria 0-5) [7] | herbicidal effect on O: lambsquarters (criteria 0-5) [8] | herbicidal effect on K: Italian ryegrass (criteria 0-5) [9] | Herbicidal effect on B: Japanese bulrush (grade 0-5) [10] | herbicidal effect on P: chickweed (criteria 0-5) [12] | herbicidal effect on M: velvetleaf (criteria 0-5) [13] | herbicidal effect on D: Chinese sprangletop [15] | herbicidal effect on O: lambsquarters [2] | herbicidal effect on L: windgrass [3] | herbicidal effect on J: blackgrass [5] | herbicidal effect on K: Italian ryegrass [11] | herbicidal effect on F: southern crabgrass [14] | herbicidal effect on I: wild oat [16] | also measured
Cc1nn(C)c(=O)c(-c2c(-c3cccc(OCC(C)C)c3)sc3ccc(F)cc23)c1O [2-221] | 3 (Herbicidal rate of 40% or more and less than 70%) | 5 (Herbicidal rate of 90% or more (almost completely withered)) | 5 (Herbicidal rate of 90% or more (almost completely withered)) | 5 (Herbicidal rate of 90% or more (almost completely withered)) | 5 (Herbicidal rate of 90% or more (almost completely withered)) | 5 (Herbicidal rate of 90% or more (almost completely withered)) | 5 (Herbicidal rate of 90% or more (almost completely withered)) | 5 (Herbicidal rate of 90% or more (almost completely withered)) | 5 (Herbicidal rate of 90% or more (almost completely withered)) | 5 (Herbicidal rate of 90% or more (almost completely withered)) |  |  |  |  |  |  | O: lambsquarters, herbicidal effect rating [2]: 4 (Herbicidal rate of 70% or more and less than 90%); L: windgrass, herbicidal effect rating [3]: 3 (Herbicidal rate of 40% or more and less than 70%); J: blackgrass, herbicidal effect rating [5]: 5 (Herbicidal rate of 90% or more (almost completely withered)); K: Italian ryegrass, herbicidal effect rating [11]: 4 (Herbicidal rate of 70% or more and less than 90%); F: southern crabgrass, herbicidal effect rating [14]: 5 (Herbicidal rate of 90% or more (almost completely withered)); I: wild oat, herbicidal effect rating [16]: 0 (Herbicidal rate of 5% or less (almost no effect))
Cc1nn(C)c(=O)c(-c2c(-c3cccc(OC(C)(C)C)c3)sc3ccc(F)cc23)c1O [2-223] | 0 (Herbicidal rate of 5% or less (almost no effect)) | 4 (Herbicidal rate of 70% or more and less than 90%) | 3 (Herbicidal rate of 40% or more and less than 70%) | 1 (Herbicidal rate of 5% or more and less than 20%) | 4 (Herbicidal rate of 70% or more and less than 90%) | 1 (Herbicidal rate of 5% or more and less than 20%) | 4 (Herbicidal rate of 70% or more and less than 90%) | 5 (Herbicidal rate of 90% or more (almost completely withered)) | 5 (Herbicidal rate of 90% or more (almost completely withered)) | 3 (Herbicidal rate of 40% or more and less than 70%) | 3 (Herbicidal rate of 40% or more and less than 70%) | 0 (Herbicidal rate of 5% or less (almost no effect)) | 0 (Herbicidal rate of 5% or less (almost no effect)) | 0 (Herbicidal rate of 5% or less (almost no effect)) | 4 (Herbicidal rate of 70% or more and less than 90%) | 0 (Herbicidal rate of 5% or less (almost no effect)) | 
CCCC(=O)Oc1c(C)nn(C)c(=O)c1-c1c(-c2ccc(C(F)F)cc2)sc2ccc(F)cc12 [2-228] | 3 (Herbicidal rate of 40% or more and less than 70%) | 5 (Herbicidal rate of 90% or more (almost completely withered)) | 3 (Herbicidal rate of 40% or more and less than 70%) | 5 (Herbicidal rate of 90% or more (almost completely withered)) | 5 (Herbicidal rate of 90% or more (almost completely withered)) | 3 (Herbicidal rate of 40% or more and less than 70%) | 4 (Herbicidal rate of 70% or more and less than 90%) | 5 (Herbicidal rate of 90% or more (almost completely withered)) | 5 (Herbicidal rate of 90% or more (almost completely withered)) | 4 (Herbicidal rate of 70% or more and less than 90%) | 4 (Herbicidal rate of 70% or more and less than 90%) | 0 (Herbicidal rate of 5% or less (almost no effect)) | 0 (Herbicidal rate of 5% or less (almost no effect)) | 0 (Herbicidal rate of 5% or less (almost no effect)) | 2 (Herbicidal rate of 20% or more and less than 40%) | 0 (Herbicidal rate of 5% or less (almost no effect)) | 
CCSc1ccc(-c2sc3ccc(F)cc3c2-c2c(O)c(C)nn(C)c2=O)cc1 [2-244] | 4 (Herbicidal rate of 70% or more and less than 90%) | 5 (Herbicidal rate of 90% or more (almost completely withered)) | 5 (Herbicidal rate of 90% or more (almost completely withered)) | 5 (Herbicidal rate of 90% or more (almost completely withered)) | 5 (Herbicidal rate of 90% or more (almost completely withered)) | 5 (Herbicidal rate of 90% or more (almost completely withered)) | 0 (Herbicidal rate of 5% or less (almost no effect)) | 5 (Herbicidal rate of 90% or more (almost completely withered)) | 5 (Herbicidal rate of 90% or more (almost completely withered)) | 5 (Herbicidal rate of 90% or more (almost completely withered)) | 4 (Herbicidal rate of 70% or more and less than 90%) | 3 (Herbicidal rate of 40% or more and less than 70%) | 5 (Herbicidal rate of 90% or more (almost completely withered)) | 4 (Herbicidal rate of 70% or more and less than 90%) | 5 (Herbicidal rate of 90% or more (almost completely withered)) | 0 (Herbicidal rate of 5% or less (almost no effect)) | 

— US20230085307A1, “PYRIDAZINONE COMPOUND AND HERBICIDE” (NISSAN CHEMICAL CORPORATION, priority 2019, published 2023)
